The text below walks through data of the NIST ThermoML archive (doi:10.1016/j.jct.2008.07.019).

Values joined by “and” are separate entries in the source; they are usually repeats but may differ in a detail not shown here. Equal entries are not always repeated. ± gives the expanded uncertainty stated by the source.

The nature of this data set: cn = amount concentration of the nth substance listed, in mol/dm3. The settings on record: 101 kPa, Liquid, c1 = 2.

As to `O=[N+]([O-])[O-].[K+]` [potassium nitrate] + O, the viscosity (commonly the internal friction of a fluid under shear) was 0.9118 ± 0.023 mPa·s (298.15 K); 0.8404 ± 0.021 mPa·s (303.15 K); 0.7619 ± 0.02 mPa·s (308.15 K); 0.6989 ± 0.018 mPa·s (313.15 K); 0.64 ± 0.017 mPa·s (318.15 K); 0.5929 ± 0.016 mPa·s and 0.5829 ± 0.016 mPa·s (323.15 K).

In the case of `[Cl-].[K+]` [potassium chloride] + O, the viscosity worked out at 0.887 ± 0.022 mPa·s (298.15 K); 0.8552 ± 0.022 mPa·s (303.15 K); 0.7658 ± 0.02 mPa·s (308.15 K); 0.6995 ± 0.018 mPa·s (313.15 K); 0.6492 ± 0.017 mPa·s (318.15 K); 0.6037 ± 0.016 mPa·s (323.15 K).
